Tested on: NCI-H196 complex spheroids with HUVEC/MSC, growth % T/C
Experiment: Anticancer human tumor NCI-H196 cell line growth inhibition [Asc];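 further: spheroids exposed to compound for 7 days before measurement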;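 on viability, T/C: 100% = DMSO vehicle control wells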
Conditions: for IC50: curve of first compound; for viability, T/C: stronger effect = lower value; active means viability on the fitted dose curve at most 10% of control; inactive means the rest
Method in brief: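 Concentration series start at each agent's clinical Cmax, or at 10 microM when none is established, and drop in half-log steps; agents are applied alone or together to complex spheroids built with HUVEC and hMSC.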

[1] = second compound 0.03 µM, first compound 0.00316 µM
[2] = second compound 0.03 µM, first compound 0.01 µM
[3] = second compound 0.03 µM, first compound 0.0316 µM
[4] = second compound 0.03 µM, first compound 0.1 µM
[5] = second compound 0.0949 µM, first compound 0.00316 µM
[6] = second compound 0.0949 µM, first compound 0.01 µM
[7] = second compound 0.0949 µM, first compound 0.0316 µM
[8] = second compound 0.0949 µM, first compound 0.1 µM
[9] = second compound 0.3 µM, first compound 0.00316 µM
[10] = second compound 0.3 µM, first compound 0.01 µM
[11] = second compound 0.3 µM, first compound 0.0316 µM
[12] = second compound 0.3 µM, first compound 0.1 µM
[13] = second compound 0.949 µM, first compound 0.00316 µM
[14] = second compound 0.949 µM, first compound 0.01 µM
[15] = second compound 0.949 µM, first compound 0.0316 µM
[16] = second compound 0.949 µM, first compound 0.1 µM
[17] = second compound 3 µM, first compound 0.00316 µM
[18] = second compound 3 µM, first compound 0.01 µM
[19] = second compound 3 µM, first compound 0.0316 µM
[20] = second compound 3 µM, first compound 0.1 µM

COc1c(OCCCN2CCOCC2)ccc2c3n(c(=NC(=O)c4cnc(N)nc4)nc12)CCN3 + CCN1C(C(=O)NC23CCC(C(=O)O)(CC2)CC3)C(c2cccc(Cl)c2F)C2(C(=O)Nc3cc(Cl)ccc32)C12CCCCC2
> 1000 nM: IC50 (second compound 0.03 µM) | IC50 (second compound 0.0949 µM) | IC50 (second compound 0.3 µM) | IC50 (second compound 0.949 µM) | IC50 (second compound 3 µM)
inactive: viability, T/C [1] 101% | viability, T/C [2] 106% | viability, T/C [3] 91% | viability, T/C [4] 77.1% | viability, T/C (second compound 0.03 µM, first compound 0.316 µM) 68.8% | viability, T/C (second compound 0.03 µM, first compound 1 µM) 52.1% | viability, T/C [5] 117% | viability, T/C [6] 99.6% | viability, T/C [7] 98.5% | viability, T/C [8] 82.8% | viability, T/C (second compound 0.0949 µM, first compound 0.316 µM) 72.7% | viability, T/C (second compound 0.0949 µM, first compound 1 µM) 52.2% | viability, T/C [9] 110% | viability, T/C [10] 102% | viability, T/C [11] 106% | viability, T/C [12] 83.1% | viability, T/C (second compound 0.3 µM, first compound 0.316 µM) 73.3% | viability, T/C (second compound 0.3 µM, first compound 1 µM) 59.7% | viability, T/C [13] 103% | viability, T/C [14] 109% | viability, T/C [15] 94.9% | viability, T/C [16] 85.7% | viability, T/C (second compound 0.949 µM, first compound 0.316 µM) 66.9% | viability, T/C (second compound 0.949 µM, first compound 1 µM) 57.3% | viability, T/C [17] 113% | viability, T/C [18] 106% | viability, T/C [19] 105% | viability, T/C [20] 81.2% | viability, T/C (second compound 3 µM, first compound 0.316 µM) 73.1% | viability, T/C (second compound 3 µM, first compound 1 µM) 54.2%

NC(=O)C(=Cn1cnc(-c2cc(C(F)(F)F)cc(C(F)(F)F)c2)n1)c1cncnc1 + CCN1C(C(=O)NC23CCC(C(=O)O)(CC2)CC3)C(c2cccc(Cl)c2F)C2(C(=O)Nc3cc(Cl)ccc32)C12CCCCC2
24.3 nM: IC50 (second compound 0.0949 µM)
inactive: viability, T/C (second compound 0.03 µM, first compound 0.000949 µM) 110% | viability, T/C (second compound 0.03 µM, first compound 0.003 µM) 99.3% | viability, T/C (second compound 0.03 µM, first compound 0.00949 µM) 79.1% | viability, T/C (second compound 0.03 µM, first compound 0.03 µM) 41.6% | viability, T/C (second compound 0.03 µM, first compound 0.0949 µM) 7.35% | viability, T/C (second compound 0.0949 µM, first compound 0.000949 µM) 100% | viability, T/C (second compound 0.0949 µM, first compound 0.003 µM) 103% | viability, T/C (second compound 0.0949 µM, first compound 0.00949 µM) 85.2% | viability, T/C (second compound 0.0949 µM, first compound 0.03 µM) 42.6% | viability, T/C (second compound 0.3 µM, first compound 0.000949 µM) 108% | viability, T/C (second compound 0.3 µM, first compound 0.003 µM) 101% | viability, T/C (second compound 0.3 µM, first compound 0.00949 µM) 90.4% | viability, T/C (second compound 0.3 µM, first compound 0.03 µM) 46.1% | viability, T/C (second compound 0.949 µM, first compound 0.000949 µM) 116% | viability, T/C (second compound 0.949 µM, first compound 0.003 µM) 109% | viability, T/C (second compound 0.949 µM, first compound 0.00949 µM) 93.1% | viability, T/C (second compound 0.949 µM, first compound 0.03 µM) 46.6% | viability, T/C (second compound 3 µM, first compound 0.000949 µM) 124% | viability, T/C (second compound 3 µM, first compound 0.003 µM) 119% | viability, T/C (second compound 3 µM, first compound 0.00949 µM) 106% | viability, T/C (second compound 3 µM, first compound 0.03 µM) 44.6%
active: viability, T/C (second compound 0.03 µM, first compound 0.3 µM) 4.55% | viability, T/C (second compound 0.0949 µM, first compound 0.0949 µM) 8.3% | viability, T/C (second compound 0.0949 µM, first compound 0.3 µM) 3.76% | viability, T/C (second compound 0.3 µM, first compound 0.0949 µM) 4.78% | viability, T/C (second compound 0.3 µM, first compound 0.3 µM) 5.31% | viability, T/C (second compound 0.949 µM, first compound 0.0949 µM) 4.71% | viability, T/C (second compound 0.949 µM, first compound 0.3 µM) 5.06% | viability, T/C (second compound 3 µM, first compound 0.0949 µM) 3.65% | viability, T/C (second compound 3 µM, first compound 0.3 µM) 4.05%
26.2 nM: IC50 (second compound 0.3 µM)
26.8 nM: IC50 (second compound 3 µM)
22.1 nM: IC50 (second compound 0.03 µM)
26.4 nM: IC50 (second compound 0.949 µM)

NC1CCC(NC2CC2c2ccccc2)CC1 (stereo not given) + CCN1C(C(=O)NC23CCC(C(=O)O)(CC2)CC3)C(c2cccc(Cl)c2F)C2(C(=O)Nc3cc(Cl)ccc32)C12CCCCC2
inactive: viability, T/C (second compound 0.03 µM, first compound 0.000316 µM) 109% | viability, T/C (second compound 0.03 µM, first compound 0.001 µM) 98% | viability, T/C [1] 109% | viability, T/C [2] 110% | viability, T/C [3] 105% | viability, T/C [4] 96.7% | viability, T/C (second compound 0.0949 µM, first compound 0.000316 µM) 102% | viability, T/C (second compound 0.0949 µM, first compound 0.001 µM) 108% | viability, T/C [5] 111% | viability, T/C [6] 103% | viability, T/C [7] 100% | viability, T/C [8] 105% | viability, T/C (second compound 0.3 µM, first compound 0.000316 µM) 118% | viability, T/C (second compound 0.3 µM, first compound 0.001 µM) 117% | viability, T/C [9] 108% | viability, T/C [10] 105% | viability, T/C [11] 97.8% | viability, T/C [12] 119% | viability, T/C (second compound 0.949 µM, first compound 0.000316 µM) 111% | viability, T/C (second compound 0.949 µM, first compound 0.001 µM) 121% | viability, T/C [13] 112% | viability, T/C [14] 114% | viability, T/C [15] 115% | viability, T/C [16] 119% | viability, T/C (second compound 3 µM, first compound 0.000316 µM) 119% | viability, T/C (second compound 3 µM, first compound 0.001 µM) 123% | viability, T/C [17] 112% | viability, T/C [18] 104% | viability, T/C [19] 115% | viability, T/C [20] 112%
> 100 nM: IC50 (second compound 0.03 µM) | IC50 (second compound 0.0949 µM) | IC50 (second compound 0.3 µM) | IC50 (second compound 0.949 µM) | IC50 (second compound 3 µM)

Source: PubChem BioAssay AID1963439 (Molecular Pharmacology Branch, DTP, NCI, 2024)
